Patent publication US11364211B2, “Methods for selecting phosphatase selective and non-selective phosphatase inhibitors” (MEDICAL RESEARCH COUNCIL, priority 2015, dated 2022)
“Also recorded” adds a separate entry of the source.

Experiments:
[1] = target: PP1c (Homo sapiens, UniProt P36873); assay: SPR binding to PP1c alone immobilized on chip
Procedure: The streptavidin coated surface was activated by 1 minute injection with a solution of 50 mM NaOH and 1 M NaCl three times at a flow rate of 10 μl/min. bio-GBZ or bio-PP1c was diluted in the running buffer (50 mM Tris pH 7.5, 100 mM NaCl, 0.1 mM EGTA, 0.05% Tween 20, 0.1% DMSO) and injected at approximately 300 nM concentration at a flow rate of 10 μl/min directly to streptavidin coated surface to reach immobilization level of bio-GBZ or bio-PP1c corresponding to ˜200 and 6000 RU, respectively. A blank immobilization was performed for one of the SA sensor chip surface to use as a reference.
With minor deviations, the same procedure and conditions were used in all binding experiments. Small molecules were stored as 50 mM stock solutions in 100% DMSO. Prior to determining binding constants, serial dilutions of either 12 or 8 concentrations of the compounds were prepared in the running buffer in a 96-well plate. […] This was followed by 1 minute stabilization period, to wash off any unspecific binding. Then, without regenerating the surface, the compound dilution series was injected onto the surface of the chip at a flow rate of 30 μl/min for 1 minute, followed by 2 minutes dissociation time. […]
Kinetic experiments are carried out using different concentrations of the compound and their respective equilibrium binding levels determined.

[2] = system: eIF2α phosphorylation in MEFs; assay: eIF2α phosphorylation in r15a mut/mut or r15b mut/mut MEFs (immunoblot); format: cell-based, mouse
Procedure: HeLa cells were maintained in Dulbecco's Modified Eagle's Media (DMEM) supplemented with penicillin, streptomycin, glutamine and 10% fetal bovine serum (FBS). Ppp1r15a −/− and Ppp1r15b −/− MEF cells were maintained in DMEM supplemented with penicillin, streptomycin, glutamine, 55 μM β-mercaptoethanol, 1X non-essential amino acids (Sigma) and 10% FBS.
(§1) Cells (90,000 cells/ml) were plated in a 24-well plate and treated as indicated. At the end of treatment cells were lysed in 150 μl Laemmli Buffer. Lysates were boiled at 95° C. for 5 minutes, sonicated and resolved on 4-12% Bolt Bis-Tris Plus Gels (Thermo Fisher Scientific). Proteins were transferred to the nitrocellulose membrane using the iBlot 2 system (Thermo Fisher Scientific) and analysed using the following antibodies: e-IF2α-P (44-728G, Thermo Fisher Scientific, 1:1000), e-IF2α (ab5369, Abcam, 1:1000), tubulin (T5168, Sigma-Aldrich, 1:4000), BiP (610978, BD Biosciences Pharmingen, 1:1000), ATF4 (sc-200, Santa Cruz Biotechnology, 1:500), Ppp1r15a (10449-1-AP, Proteintech, 1:1000) and Ppp1r15b (14634-1-AP, Proteintech, 1:1000). Proteins were visualized using ECL Prime (GE Healthcare).

[3] = system: HeLa cells; assay: Cytoprotection from tunicamycin ER stress (WST-8 cell viability); format: cell-based, human; settings: Tunicamycin 2.5 ug/ml, 0.2-5 μM compound
Procedure: Cells were plated in 24-well plates at a density of 15,000 (HeLa) or 12,000 cells/ml (MEFs) 24 hours prior to treatment. ER stress was elicited by addition of fresh media containing 2.5 μg/ml tunicamycin (Sigma-Aldrich). Compounds of Example 1 were dissolved in DMSO and added as indicated. DMSO was used as a mock treatment. Cell viability was assessed by measuring the reduction of WST-8 [2-(2-methoxy-4-nitrophenyl)-3-(4-nitrophenyl)-5-(2,4-disulfophenyl)-2H-tetrazolium] into formazan using Cell viability Counting Kit-8 (Dojindo) according to the supplier's recommendation, 48 hours after tunicamycin treatment.
Cells where stressed with Tunicamycin (2.5 ug/ml) in the presence of 0.2-5 μM of a compound of Example 1. Cell viability was measured 3 days after treatment.
Cytoprotection against ER stress can be measured by a suitable assay. In this instance, cytoprotection was measured in HeLa cells in which ER stress was elicited by the addition of media containing tunicamycin, a drug that blocks N-glycosylation, thereby preventing protein folding and inducing the unfolded protein response. Cell viability was then detected in the presence and absence of a compound of Example 1 after a set period of time, by measuring the reduction of WST-8 into formazan using the standard cell viability kit Cell Viability Counting Kit-8 from Dojindo. […]

[4] = system: PPP1R15A; assay: Induction of PPP1R15A in mouse brain (qPCR); format: in vivo; settings: mice, indicated doses
Procedure: RNA from brain was extracted in trizol (Life Technologies). RNA concentration was measured using a NANODROP1000 spectrophotometer (Thermo Fisher Scientific), and 1 μg was reverse transcribed to cDNA using a SuperScript reverse transcriptase (Life Technologies). Quantitative PCR with primers GAPDH (f): […], GAPDH (r): […], PPP1R15A (f): […];
and PPP1R15A (r): […] was performed using SYBR® Select Master Mix (Ref 4472908, applied biosystems) on a Corbett Rotor-Gene version 6000. Expression of each gene was normalized to the housekeeping gene GAPDH and expressed as fold change calculated using Paffl equation.
PPP1R15A induction was assessed by qPCR on total mRNA extracted from brains of mice treated with the indicated doses of compound of Example 1.

[5] = system: PPP1R15A; assay: Induction of PPP1R15A expression in cells (immunoblot); format: cell-based, human; settings: absence of stress
Procedure: For immunoblots, HeLa cells (80,000 cells/ml) were plated in 12-well plates 24 hours before each experiment. Immediately after the indicated treatments, cells were lysed in 75 μl Laemmli Buffer, boiled at 95° C. for 5 minutes and sonicated. Proteins were separated and analysed as described (Tsaytler et al., Science, 332, 91-94, 2011) with the following antibodies: phospho-elf2α [pS52] and PPP1R15A/GADD34 (10449-1-AP; ProteinTech Group, 1/1000 dilution).
as §1

PP1c, sequence (P36873 whole entry): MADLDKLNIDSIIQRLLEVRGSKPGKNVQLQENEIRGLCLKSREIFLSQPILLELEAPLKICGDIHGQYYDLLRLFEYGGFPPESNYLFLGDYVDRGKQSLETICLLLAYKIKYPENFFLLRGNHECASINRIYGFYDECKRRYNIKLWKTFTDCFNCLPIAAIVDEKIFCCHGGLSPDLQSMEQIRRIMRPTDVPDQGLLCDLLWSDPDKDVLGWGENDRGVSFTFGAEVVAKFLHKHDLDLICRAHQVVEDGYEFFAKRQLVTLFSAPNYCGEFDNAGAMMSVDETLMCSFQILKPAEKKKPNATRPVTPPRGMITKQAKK

Compound | binding to PP1c alone (in words) [1] | eIF2α phosphorylation upon inactivation of R15A ([2]; r15a mut/mut MEFs) | effect on eIF2α phosphorylation in r15b knock out cells ([2]; r15b mut/mut MEFs, 10 μM, listed as TST3) | protection of cells from tunicamycin stress (cell viability) [3] | induction of PPP1R15A mRNA in brain [4] | expression of PPP1R15A (R15A) in cells [5] | expression of PPP1R15A (R15A) in cells ([5]; listed as TST3)
N=C(N)N/N=C/c1c(Cl)cccc1Cl [Guanabenz, reference compound] | not to PP1c alone |  |  |  |  |  | 
[H]/N=C(\N)NN=Cc1cccc(Cl)c1Cl [Example 1, (E)-2-(2,3-dichlorobenzylidene)hydrazine-1-carboximidamide] |  | rendered persistent | activity is abolished | protects cells from cytotoxic ER stress | induced PPP1R15A; also recorded: induction of R15A | induce PPP1R15A; also recorded: induces expression of R15A | induced expression
